Experimental data reported in patent US20220298107A1, “SUBSTITUTED UREA DIHYDROOROTATE DEHYDROGENASE INHIBITORS” (Janssen Biotech, Inc., priority 2019, published 2022).

Tests used:
MOLM-13 cells = assay: MOLM-13 Cellular Assay; type: cell-based; conditions: Homo sapiens, MOLM-13, 72 h, read-out: MOLM-13 Cellular Assay EC50 (nM)
Description: MOLM-13 cells were obtained from DSMZ and were maintained in RPMI 1640+Glutamax+25 mM HEPES (Invitrogen, catalog number 72400) supplemented with 10% heat inactivated fetal bovine serum (FBS; Invitrogen, catalog number 16140). The day prior to assay set-up, cells were pelleted, resuspended in fresh media, counted, and cells were plated at 0.4×10^6 cell/mL in a T150 flask. On the day of the assay, cells were pelleted, resuspend in fresh media, counted and seeded at 5,000 cells/well in white opaque 96-well tissue culture treated microplates (Perkin Elmer, catalog number 6005680). Cells were exposed to different concentrations of test compounds at 37° C., 5% CO2 for 72 hours immediately after seeding. Cell viability was acquired on a Perkin Elmer Envision 2104 multilabel reader using the CellTiter-Glo assay (Promega) according to the manufacturer's instructions.

human DHODH = human DHODH (Homo sapiens, UniProt Q02127); assay: biochemical
Description: To detect DHODH enzyme activities, dichloroindophenol (DCIP) is added as the final electron acceptor in the assay. DCIP can accept electrons from the reduced coenzyme Q generated in the assay, or from dihydroorotate (DHO) via flavin mononucleotide (FMN) by binding presumably to the ubiquinone pocket. […] The assay buffer contained […], pH 7.5, 150 mM NaCl, 0.5 mM EDTA, and 0.1% Triton X-100 in MilliQ water. Substrate consisting of 20 mM DHO, 5 mM CoQ6, and 1 mM DCIP in assay buffer, initiates the reaction. […] Absorbance measurements were obtained using the BMG Phera Star plate-reading spectrophotomer. Purified human DHODH was purchased from Proteros (cat. No. PR-0044). Chemicals were purchased from Sigma-Aldrich, Teknova, and Avanti Polar Lipids. Liquid handling was performed using Labcyte Echo and Formulatrix Tempest.

human DHODH, sequence (Q02127 whole entry): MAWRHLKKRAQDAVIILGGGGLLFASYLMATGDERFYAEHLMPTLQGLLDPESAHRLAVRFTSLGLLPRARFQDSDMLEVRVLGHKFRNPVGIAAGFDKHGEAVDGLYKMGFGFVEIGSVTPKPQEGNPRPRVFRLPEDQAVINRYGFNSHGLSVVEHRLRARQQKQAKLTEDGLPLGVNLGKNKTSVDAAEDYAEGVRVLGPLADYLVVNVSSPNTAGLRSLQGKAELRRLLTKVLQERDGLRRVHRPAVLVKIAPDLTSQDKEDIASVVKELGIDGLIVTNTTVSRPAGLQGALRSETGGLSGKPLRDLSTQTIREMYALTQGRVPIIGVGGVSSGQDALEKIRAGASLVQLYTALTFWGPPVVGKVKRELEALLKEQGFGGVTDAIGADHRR

| SMILES | EC50 (MOLM-13 cells) [nM] | EC50 (human DHODH) [nM] |
| --- | --- | --- |
| C[C@H](Oc1cc(NC(=O)N2CCCCC2)c(F)cc1C(=O)Nc1c(F)cccc1Cl)C(F)(F)F [Example 2, (S)-N-(4-((2-Chloro-6-fluorophenyl)carbamoyl)-2-fluoro-5-((1,1,1-trifluoropropan-2-yl)oxy)phenyl)piperidine-1-carboxamide] | 12 | 20 |
| CCN(CCO)C(=O)Nc1cc(O[C@@H](C)C(F)(F)F)c(C(=O)Nc2c(F)cccc2Cl)cc1F [Example 3, (S)-N-(2-Chloro-6-fluorophenyl)-4-(3-ethyl-3-(2-hydroxyethyl)ureido)-5-fluoro-2-((1,1,1-trifluoropropan-2-yl)oxy)benzamide] | 1.2 | – |
| CCN(C(=O)Nc1cc(O[C@@H](C)C(F)(F)F)c(C(=O)Nc2c(F)cccc2Cl)cc1F)C(C)C [Example 4, (S)-N-(2-Chloro-6-fluorophenyl)-4-(3-ethyl-3-isopropylureido)-5-fluoro-2-((1,1,1-trifluoropropan-2-yl)oxy)benzamide] | 2.1 | 7.3 |
| CCN(CCOC)C(=O)Nc1cc(O[C@@H](C)C(F)(F)F)c(C(=O)Nc2c(F)cccc2Cl)cc1F [Example 6, (S)-N-(2-Chloro-6-fluorophenyl)-4-(3-ethyl-3-(2-methoxyethyl)ureido)-5-fluoro-2-((1,1,1-trifluoropropan-2-yl)oxy)benzamide] | 1.2 | 3.6 |
| CCN(CC(F)F)C(=O)Nc1cc(O[C@@H](C)C(F)(F)F)c(C(=O)Nc2c(F)cccc2Cl)cc1F [Example 7, (S)-N-(2-chloro-6-fluorophenyl)-4-(3-(2,2-difluoroethyl)-3-ethylureido)-5-fluoro-2-((1,1,1-trifluoropropan-2-yl)oxy)benzamide] | 1.9 | – |
| CC(C)NC(=O)Nc1cc(O[C@@H](C)C(F)(F)F)c(C(=O)Nc2c(F)cccc2Cl)cc1F [Example 9, (S)-N-(2-Chloro-6-fluorophenyl)-5-fluoro-4-(3-isopropylureido)-2-((1,1,1-trifluoropropan-2-yl)oxy)benzamide] | 89 | 490 |
| C[C@H](Oc1cc(NC(=O)N2CCC(CO)C2)c(F)cc1C(=O)Nc1c(F)cccc1Cl)C(F)(F)F (stereo partly drawn) [Example 13, N-(4-((2-Chloro-6-fluorophenyl)carbamoyl)-2-fluoro-5-(((S)-1,1,1-trifluoropropan-2-yl)oxy)phenyl)-3-(hydroxymethyl)pyrrolidine-1-carboxamide] | 220 | 950 |
| CCCN(C)C(=O)Nc1cc(O[C@@H](C)C(F)(F)F)c(C(=O)Nc2c(F)cccc2Cl)cc1F [Example 14, (S)-N-(2-Chloro-6-fluorophenyl)-5-fluoro-4-(3-methyl-3-propylureido)-2-((1,1,1-trifluoropropan-2-yl)oxy)benzamide] | – | 7.9 |
| CCCN(CC)C(=O)Nc1cc(O[C@@H](C)C(F)(F)F)c(C(=O)Nc2c(F)cccc2Cl)cc1F [Example 15, (S)-N-(2-Chloro-6-fluorophenyl)-4-(3-ethyl-3-propylureido)-5-fluoro-2-((1,1,1-trifluoropropan-2-yl)oxy)benzamide] | – | 20 |
| C[C@H](Oc1cc(NC(=O)N(C)CCF)c(F)cc1C(=O)Nc1c(F)cccc1Cl)C(F)(F)F [Example 16, (S)-N-(2-chloro-6-fluorophenyl)-5-fluoro-4-(3-(2-fluoroethyl)-3-methylureido)-2-((1,1,1-trifluoropropan-2-yl)oxy)benzamide] | – | 4.7 |
| C[C@H](Oc1cc(NC(=O)N(C)CCC#N)c(F)cc1C(=O)Nc1c(F)cccc1Cl)C(F)(F)F [Example 17, (S)-N-(2-Chloro-6-fluorophenyl)-4-(3-(2-cyanoethyl)-3-methylureido)-5-fluoro-2-((1,1,1-trifluoropropan-2-yl)oxy)benzamide] | – | 200 |
| C[C@H](Oc1cc(NC(=O)N(C)CCO)c(F)cc1C(=O)Nc1c(F)cccc1Cl)C(F)(F)F [Example 18, (S)-N-(2-Chloro-6-fluorophenyl)-5-fluoro-4-(3-(2-hydroxyethyl)-3-methylureido)-2-((1,1,1-trifluoropropan-2-yl)oxy)benzamide] | 1.5 | 2.6 |
| C[C@H](Oc1cc(NC(=O)N2CCC2)c(F)cc1C(=O)Nc1c(F)cccc1Cl)C(F)(F)F [Example 20, (S)-N-(4-((2-Chloro-6-fluorophenyl)carbamoyl)-2-fluoro-5-((1,1,1-trifluoropropan-2-yl)oxy)phenyl)azetidine-1-carboxamide] | – | 2.8 |
| C[C@H](Oc1cc(NC(=O)N2CC(F)C2)c(F)cc1C(=O)Nc1c(F)cccc1Cl)C(F)(F)F [Example 22, (S)-N-(4-((2-Chloro-6-fluorophenyl)carbamoyl)-2-fluoro-5-((1,1,1-trifluoropropan-2-yl)oxy)phenyl)-3-fluoroazetidine-1-carboxamide] | – | 7.2 |
| C[C@H](Oc1cc(NC(=O)N2CC(O)C2)c(F)cc1C(=O)Nc1c(F)cccc1Cl)C(F)(F)F [Example 23, (S)-N-(4-((2-Chloro-6-fluorophenyl)carbamoyl)-2-fluoro-5-((1,1,1-trifluoropropan-2-yl)oxy)phenyl)-3-hydroxyazetidine-1-carboxamide] | 270 | 540 |
| C[C@H](Oc1cc(NC(=O)N2CC(CF)C2)c(F)cc1C(=O)Nc1c(F)cccc1Cl)C(F)(F)F [Example 25, (S)-N-(4-((2-Chloro-6-fluorophenyl)carbamoyl)-2-fluoro-5-((1,1,1-trifluoropropan-2-yl)oxy)phenyl)-3-(fluoromethyl)azetidine-1-carboxamide] | 110 | 210 |
| C[C@H](Oc1cc(NC(=O)N(C)CC#N)c(F)cc1C(=O)Nc1c(F)cccc1Cl)C(F)(F)F [Example 26, (S)-N-(2-Chloro-6-fluorophenyl)-4-(3-(cyanomethyl)-3-methylureido)-5-fluoro-2-((1,1,1-trifluoropropan-2-yl)oxy)benzamide] | 170 | 7970 |
| COC1CCN(C(=O)Nc2cc(O[C@@H](C)C(F)(F)F)c(C(=O)Nc3c(F)cccc3Cl)cc2F)C1 (stereo partly drawn) [Example 29, N-(4-((2-Chloro-6-fluorophenyl)carbamoyl)-2-fluoro-5-(((S)-1,1,1-trifluoropropan-2-yl)oxy)phenyl)-3-methoxypyrrolidine-1-carboxamide] | 40 | 85 |
| C[C@H](Oc1cc(NC(=O)N2CCC(O)C2)c(F)cc1C(=O)Nc1c(F)cccc1Cl)C(F)(F)F (stereo partly drawn) [Example 30, N-(4-((2-Chloro-6-fluorophenyl)carbamoyl)-2-fluoro-5-(((S)-1,1,1-trifluoropropan-2-yl)oxy)phenyl)-3-hydroxypyrrolidine-1-carboxamide] | 57 | 120 |
| C[C@H](Oc1cc(NC(=O)N2CCC(F)C2)c(F)cc1C(=O)Nc1c(F)cccc1Cl)C(F)(F)F (stereo partly drawn) [Example 32, N-(4-((2-Chloro-6-fluorophenyl)carbamoyl)-2-fluoro-5-(((S)-1,1,1-trifluoropropan-2-yl)oxy)phenyl)-3-fluoropyrrolidine-1-carboxamide] | 5.8 | 13 |
| Cc1ccnc(Cl)c1NC(=O)c1cc(F)c(NC(=O)N2CCC[C@@H]2CO)cc1O[C@@H](C)C(F)(F)F [Example 36, (R)-N-(4-((2-Chloro-4-methylpyridin-3-yl)carbamoyl)-2-fluoro-5-(((S)-1,1,1-trifluoropropan-2-yl)oxy)phenyl)-2-(hydroxymethyl)pyrrolidine-1-carboxamide] | 6.6 | 2.6 |
